Results from US6899723B2, “Transcutaneous photodynamic treatment of targeted cells” (Light Sciences Corporation, priority 2001, dated 2005).
“And” between values parts separate entries of the source, which are not always exact repeats. Equal entries are not always repeated.

What was measured:
normal skin tissue = details: systemically administered, clinical use; cited from earlier work
[1] = test system: colon carcinoma tumor mass; assay: Photodynamic therapy of a solid tumor in a patient with implanted LED light source probes; type: in vivo, human
Description: A patient in the terminal phase of recurrent malignant colon cancer having undergone chemotherapy and irradiation therapy, presented with a protruding colon carcinoma tumor mass of approximately 500 grams and approximately 13 cm in diameter, which extended through the patient's dermis. Due to the advanced state of the patient's disease and due to the highly vascularized nature of this tumor mass, resection was not feasible. Further, this large tumor mass presented a significant amount of pain and discomfort to the patient, as well as greatly impairing the patient's ability to lie flat.
Six separate light source probes, each including a linear array of LEDs, were surgically implanted in this large human tumor using standard surgical procedures. A single dose of a photosensitizer agent (aminolevulinic acid (ALA) at 60 mg/kg) was provided by oral administration to the patient. Following a period of five hours to permit sufficient clearance of the photosensitizing agent from healthy tissues, light irradiation was administered. An intensity of about 25-30 mW of light from each light source probe (650 nm peak wavelength) was delivered to the tumor for 40 hours. […] The total fluence delivered to the tumor bed during this single extended duration treatment was in excess of 20,000 Joules.
The fluence rate employed in this Example represented about 150-180 mW/cm^2, with a total fluence more than 20,000 Joules.

[2] = test system: transplanted human tumors; assay: Low fluence PDT of established transplanted human tumors in nude mice; type: in vivo; details: for tumor necrosis: 660 nm light 30 microwatts per cm^2 for 72 hours, after 7 days
Description: (§1) A series of experiments were performed using nude mice growing transplanted human tumors. The mice are injected with various photosensitizers and the tumors illuminated with low fluence of only […] of light over a 72 hour time period. Extended tumor necrosis was observed.
(§2) Another two mice with established tumors were injected with 50-100 micrograms of Pheophorbide A into the lesion and exposed to 660 nm light (30 microwatts per cm^2) for 72 hours.
(§3) Two experimental mice were injected with epithelial cancer cells preincubated with 20 micrograms of Chlorin e6. […] Another two mice were injected with 100-150 micrograms of Chlorin e6 intratumorally and then exposed to 660 nm light (30 microwatts per cm^2) for 72 hours.
Five experimental mice bearing established tumors were injected with 1 mg Hpd intraperitoneally followed by exposure to 630 nm (peak) light ([…]) for 72 hours. […] There was no effect observed on control animals maintained in the absence of light (dark control mice).

epithelial cancer cells = assay: Low fluence PDT of nude mice injected with epithelial cancer cells preincubated with photosensitizer; type: in vivo; details: for tumor growth: 660 nm light about 48 hours, 30 microwatts per cm^2, after 1.5 months
Description: as §1, §2, §3

[3] = cited from earlier work
virus-infected T cells = details: Blood Cells 18:129-40 (1992); cited from earlier work

In the case of `CCOC(=O)C1=Cc2c3nc(cc4nc(cc5[n-]c(cc6[n-]c2c(C)c6CC)c(C)c5CC)C(C)=C4CC)[C@@H](C)[C@]13CC.[Cl-].[Cl-].[Sn]` (racemic) [PURLYTIN], the “duration of dermal photosensitivity” value (normal skin tissue) is listed as “at least several weeks”.
For `NCC(=O)CCC(=O)O` [ALA, aminolevulinic acid], the “reduction of tumor tissue (necrotic tissue debrided)” value ([1]; over four weeks following PDT) was “approximately 500 grams”, the “radius of extensive tumor necrosis from each of the light source probes” value ([1]; patient, ALA 60 mg/kg oral, 650 nm light, after 40 hours of PDT, total fluence > 20,000 Joules) was “greater than 5 cm” and the “collateral damage to surrounding normal tissue” value ([1]; patient, ALA 60 mg/kg oral, after 40 hours of PDT) was “no collateral damage”.
With `C=Cc1c(C)c2cc3nc(c(CC(=O)O)c4[nH]c(cc5nc(cc1[nH]2)C(C)=C5CC)c(C)c4C(=O)O)[C@@H](CCC(=O)O)[C@@H]3C` [Chlorin e6] the tumor necrosis ([2]; 100-150 micrograms intratumorally) was “Extensive tumor necrosis”, the tumor growth (epithelial cancer cells; cells preincubated with 20 micrograms) was “no tumor growth” and the “tumor growth, dark control” value (epithelial cancer cells; cells preincubated with 20 micrograms, no light) was “developed a large tumor”.
For `Oc1cccc(-c2c3nc(c(-c4cccc(O)c4)c4ccc([nH]4)c(-c4cccc(O)c4)c4nc(c(-c5cccc(O)c5)c5ccc2[nH]5)CC4)C=C3)c1` [FOSCAN], the “duration of dermal photosensitivity” value (normal skin tissue) is listed as “at least several weeks”.
For `CC(=O)[O-].CC(=O)[O-].CCc1c(CC)c2cc3nc(cnc4cc(OCCOCCOCCOC)c(OCCOCCOCCOC)cc4ncc4nc(cc1[n-]2)C(CCCO)=C4C)C(C)=C3CCCO.O.[Lu+3]` [Lutrin, lutetium texaphyrin], the “time tumor tissues retain the agent” value ([3]; from time of administration) is given as 48 to 96 h and 24 to 96 h, the “time at which a larger proportion clears from normal tissue” value ([3]; in vivo) is given as “about 8 hours” and the “time at which a proportion begins to clear from normal tissue” value ([3]; in vivo) is given as “about 3 hours”. The “time at which an even greater proportion clears from normal tissue” value ([3]; in vivo) was “about 16 hours”.
In the case of Pheophorbide A, the tumor necrosis ([2]; 50-100 micrograms into the lesion) is reported as “Extensive tumor necrosis”, the “effect on tumor, dark control animals” value ([2]; 50-100 micrograms into the lesion, no light) is reported as “no effect” and the tumor growth (epithelial cancer cells; cells preincubated with 10 micrograms) is reported as “no tumor growth”. The “tumor growth, dark controls” value (epithelial cancer cells; cells preincubated with 10 micrograms, maintained in the absence of light) was “developed a large tumor”.
For benzoporphyrin derivatives [BPD], the “effect on T cell membrane after exposure to light” value (virus-infected T cells) is listed as “holes developed in the T cell membrane and increased in size until the membrane completely decomposed”.
In the case of sodium porfimer [PHOTOPHRIN], the “duration of dermal photosensitivity” value (normal skin tissue) is given as “up to six weeks”.
